Experimental findings from patent US12390446B2 (RESEARCH TRIANGLE INSTITUTE, priority 2017, dated 2025) are described below.

Converted amounts (≈) assume the structure as drawn. “And” between values parts separate entries of the source, which are not always exact repeats. Equal entries are not always repeated. “Also recorded” adds a separate entry of the source. Where two headings read alike, the source gives them in different places. Where only a bound is given, the exact number is not on record here.

Series [1] relates to P-gp (MDR1). Put plainly: Bidirectional MDCK-MDR1 permeability assay. It is filed as in vitro ADME. To be noted: dog, MDCK-MDR1, pH 7.4; read-out: efflux ratio (PB→A/PA→B). How it is done:
(§1) Kinetic solubility and bidirectional MDCK-MDR1 permeability assays of the compounds were performed by Paraza Pharma Inc. (Montreal, Canada) according to their standard protocols.
(§2) Bidirectional MDCK-MDR1 permeability assay. MDCK-mdr1 cells at passage 5 were seeded onto permeable polycarbonate supports in 12-well Costar@ Transwell® plates and allowed to grow and differentiate for 3 days. On day 3, culture medium (DMEM supplemented with 10% FBS) was removed from both sides of the transwell inserts and cells were rinsed with warm HBSS. After the rinse step, the chambers were filled with warm transport buffer (HBSS containing 10 mM HEPES, 0.25% BSA, pH 7.4) and the plates were incubated at 37° C. for 30 min prior to TEER (Trans Epithelial Electric Resistance) measurements.
(§3) The buffer in the donor chamber (apical side for A-to-B assay, basolateral side for B-to-A assay) was removed and replaced with the working solution (10 μM test article in transport buffer). The plates were then placed at 37° C. under light agitation. At designated time points (30, 60 and 90 min), an aliquot of transport buffer from the receiver chamber was removed and replenished with fresh transport buffer. Samples were quenched with ice-cold ACN containing internal standard and then centrifuged to pellet protein. Resulting supernatants are further diluted with 50/50 ACN/H2O(H2O only for Atenolol) and submitted for LC-MS/MS analysis. Reported apparent permeability (Papp) values were calculated from single determination. Atenolol and propranolol were tested as low and […] permeability references.
(§4) The apparent permeability (Papp, measured in cm/s) of a compound is determined according to the following formula:
(§5) [formula] • dQ/dt is the net rate of appearance in the receiver compartment • A is the area of the Transwell measured in cm^2 (1.12 cm^2) • Ci is the initial concentration of compound added to the donor chamber • 60 is the conversion factor for minutes to seconds. In Vivo Pharmacology.

Series [2] deals with MDCK-MDR1 cells. Briefly: Bidirectional MDCK-MDR1 permeability assay. To be noted: for BBB permeability / rate B to A / rate apical (A) to basolateral (B): MDCK-MDR1; for Pgp substrate: from efflux ratio. The series is classed as in vitro ADME. How it is done:
as §1, §2, §3, §4, §5

Series [3] in a line: Kinetic solubility assay. The series is classed as physicochemical. How it is done: as §1
Kinetic solubility assay. A 10 μL of test compound stock solution (10 mM DMSO) was combined with 490 μL of PBS (potassium phosphate monobasic 1 mM, sodium phosphate dibasic 3 mM and sodium chloride 155 mM buffer). The solution was agitated on a VX-2500 multi-tube vortexer (VWR) for 2 hours at room temperature. Following agitation, the sample was filtrated on a glass-fiber filter (1 μm) and the eluate was diluted 200-fold with a mixture of acetonitrile: water (1:1). On each experimental occasion, nicardipine and imipramine were assessed as reference compounds for low and high solubility, respectively. All samples were assessed in triplicate and analyzed by LC-MS/MS using electrospray ionization against standards prepared in the same matrix.

In series [4] the target is T1, NPFF2 receptor (human NPFFR2 in CHO-RD-HGA16 cells) (Homo sapiens, UniProt Q9Y5X5).
T1 construct: expressed in transfected cells
Briefly: Calcium mobilization functional Ke assay, NPFF2. It is filed as cell-based. For orientation: Calcium assays in cells follow changes in intracellular calcium, usually with a dye or a luminescent sensor.

Series [5] addresses T2, NPFF2 receptor (CHO-hNPFFR2 membranes) (Homo sapiens, UniProt Q9Y5X5).
T2 construct: purchased PerkinElmer RBHNF2M400UA; host or cells: CHO cell membranes
Put plainly: Radioligand binding assay, [125I]NPFF, NPFF2. The procedure: (§6) Radioligand binding assay. Binding assays were performed according to PerkinElmer's protocol in a final volume of 500 μL of assay buffer (50 mM Tris-HCl, 1 mM MgCl2, 60 mM NaCl, 0.5% BSA, pH 7.4). […] After incubating at 27° C. for 120 minutes, the binding assay was terminated by vacuum filtration onto Unifilter GF/C glass-fiber filters (pre-soaked in 0.1% PEI) using a Brandel (Gaithersburg, MD, USA) 96-well harvester, followed by three washes with ice-cold wash buffer (50 mM Tris-HCl, 0.1% BSA, pH 7.4). The filter plate was dried for 1 hr at 55° C. Microscint 20 (50 μL) was added to each well and filter-bound radioactivity was counted on a Packard TopCount NXT microplate scintillation and luminescence counter.
(§7) Data were fit to a one site (fit Ki) competitive binding model, log EC50=log(10^log Ki*(1+RadioligandNM/HotKdNM)), to generate Ki values for the test compounds using GraphPad Prism (GraphPad Software, Inc., San Diego CA).

The target in series [6] is NPFF2 receptor (human NPFFR2-CHO cells) (Homo sapiens, UniProt Q9Y5X5). Briefly: Lance cAMP functional Ke assay, NPFF2. It is filed as cell-based. The conditions noted are these: for Kb: Table 5. The procedure:
as §1
(§8) cAMP assay. Stable human NPFFR1-CHO (ES-491-C) and NPFFR2-CHO (ES-490-C) cell lines were purchased from PerkinElmer and used with the Lance@ Ultra kit (TRF0262) to detect cAMP accumulation in low volume 96-well plates. Stimulation buffer containing 1× HBSS, 5 mM HEPES, 0.1% BSA stabilizer, and 0.5 mM IBMX was prepared and titrated to 7.4 at room temperature.
(§9) A single concentration of each test compound was prepared at 4× the desired final concentration in 2% DMSO/stimulation buffer and 5 μL was added to the assay plate.
(§10) Cells were lifted with versene and spun at 270 g for 10 minutes. The cell pellet was resuspended in stimulation buffer and 4,000 cells (10 μL) were added to each well. After incubating for 30 min at RT, Eu-cAMP tracer and uLIGHT-anti-cAMP working solutions were added per the manufacturer's instructions. After incubation at RT for 1 hour, the TR-FRET signal (ex 337 nm) was read on a CLARIOstar multimode plate reader (BMG Biotech, Cary NC).
(§11) Fluorescence values at 665 nm were plotted against the log of compound concentration using a nonlinear regression analysis to generate EC50 values (GraphPad Prism, GraphPad Software, Inc., San Diego CA). Ke values were calculated using the same equation as described in the calcium mobilization methods.

Series [7] concerns the target NPFF1 receptor (human NPFFR1-CHO cells) (Homo sapiens, UniProt Q9GZQ6). Briefly: Lance cAMP functional Ke assay, NPFF1. To be noted: for Kb: Table 5. It is filed as cell-based. How it is done:
as §1, §8, §9, §10, §11

Series [8] deals with T3, NPFF1 receptor (human NPFFR1 in CHO-RD-HGA16 cells) (Homo sapiens, UniProt Q9GZQ6).
T3 construct: expressed in transfected cells
Briefly: Calcium mobilization functional Ke assay, NPFF1. The series is classed as cell-based. The conditions noted are these: for Kb: read-out: NPFF1 Ke; for preference / selectivity for NPFF1 over NPFF2: from calcium mobilization Ke values.

Series [9] relates to Sprague-Dawley rats. Put plainly: Fentanyl-induced hyperalgesia model in rats (von Frey paw withdrawal threshold). It is filed as in vivo, rat. The conditions noted are these: day 1 after fentanyl, i.p., cumulative doses 3.2-32 mg/kg.
The target in series [10] is T4, NPFF1 receptor (CHO-hNPFFR1 membranes) (Homo sapiens, UniProt Q9GZQ6).
T4 construct: purchased PerkinElmer RBHNF1M400UA; host or cells: CHO cell membranes
Briefly: Radioligand binding assay, [125I]NPFF, NPFF1. How it is done: as §6, §7

[11] abbreviates: Table 5, [125I]NPFF displacement.
Where [12] appears, read: Table 1, mean ± SEM, apparent dissociation constant vs NPFF.
[13] abbreviates: Table 6, MDCK-MDR1, 10 μM test article.

T1 sequence (Q9Y5X5 whole entry): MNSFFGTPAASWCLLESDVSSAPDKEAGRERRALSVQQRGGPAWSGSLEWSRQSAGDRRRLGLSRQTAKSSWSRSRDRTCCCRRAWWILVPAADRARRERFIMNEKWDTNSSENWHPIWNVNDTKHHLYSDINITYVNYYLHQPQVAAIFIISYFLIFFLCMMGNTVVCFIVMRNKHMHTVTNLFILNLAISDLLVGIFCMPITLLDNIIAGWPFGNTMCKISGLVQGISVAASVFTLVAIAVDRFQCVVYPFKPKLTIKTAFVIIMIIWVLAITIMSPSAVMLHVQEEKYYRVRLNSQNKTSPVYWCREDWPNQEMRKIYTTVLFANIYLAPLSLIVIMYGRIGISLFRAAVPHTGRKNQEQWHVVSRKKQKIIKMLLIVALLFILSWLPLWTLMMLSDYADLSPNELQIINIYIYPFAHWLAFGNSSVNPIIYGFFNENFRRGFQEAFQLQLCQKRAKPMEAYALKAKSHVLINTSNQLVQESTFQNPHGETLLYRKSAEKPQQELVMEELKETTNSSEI
T2 sequence (Q9Y5X5 whole entry): as above
NPFF2 receptor (human NPFFR2-CHO cells), sequence (Q9Y5X5 whole entry): as above
NPFF1 receptor (human NPFFR1-CHO cells), sequence (Q9GZQ6 whole entry): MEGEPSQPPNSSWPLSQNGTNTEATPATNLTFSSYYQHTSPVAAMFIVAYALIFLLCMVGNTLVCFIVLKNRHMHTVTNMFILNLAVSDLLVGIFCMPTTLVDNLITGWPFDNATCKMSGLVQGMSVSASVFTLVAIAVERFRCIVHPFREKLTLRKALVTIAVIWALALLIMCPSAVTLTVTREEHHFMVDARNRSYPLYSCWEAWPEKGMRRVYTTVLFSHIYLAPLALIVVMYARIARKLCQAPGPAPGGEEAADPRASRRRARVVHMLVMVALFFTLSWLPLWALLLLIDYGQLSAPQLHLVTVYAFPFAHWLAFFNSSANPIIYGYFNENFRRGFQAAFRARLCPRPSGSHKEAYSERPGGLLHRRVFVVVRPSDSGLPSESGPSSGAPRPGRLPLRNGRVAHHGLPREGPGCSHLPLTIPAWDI
T3 sequence (Q9GZQ6 whole entry): as above
T4 sequence (Q9GZQ6 whole entry): as above

What is called solubility is how much of the substance goes into solution per volume. The Ki is the equilibrium dissociation constant of an inhibitor or competing ligand from its target. `COc1ccc(CN[C@H]2C[C@@H](C(=O)NCCc3ccc([N+](=O)[O-])cc3)N(Cc3ccccc3Cl)C2)cc1` [Compound 33]: the efflux ratio at 90 min, 10 μM in series [1] stood at 1.3. Besides, in series [2], the “BBB permeability” value is given as “moderate”, the “rate B to A” value turned out to be 3.6e-06 cm/s, the “rate apical (A) to basolateral (B)” value was determined as 2.7e-06 cm/s and the “Pgp substrate” value is on record as “not Pgp substrates; also recorded: not a Pgp substrate”. In addition, the “solubility” value in series [3] is on record as “moderate”. Also, the “Hill slope of NPFF + compound curve, calcium mobilization, NPFF2 cells” value in series [4] came to 1.4. The affinity in series [5] corresponds to a Ki of 1670 nM. The “Hill slope of NPFF + compound curve, cAMP assay, NPFF2 cells” value in series [6] is 1. Besides, in [7], the “Hill slope of NPFF + compound curve, cAMP assay, NPFF1 cells” value is reported as 1.4. In [8], the “Hill slope of NPFF + compound curve, calcium mobilization, NPFF1 cells” value came out at 1.4 and the “preference / selectivity for NPFF1 over NPFF2” value is given as roughly 3 fold. For the same compound, the Kb in [8] (calcium mobilization assay) was 245 nM and 250 nM. Moreover, in [8] (standard incubation, competitive profile with longer incubations), the “type of antagonism in curve-shift assays” value is recorded as “insurmountable antagonism”. The “effect on PWT” value in series [9] was “dose-dependently increased PWT”. Besides, the affinity in series [10] corresponds to a Ki of 610 ± 30 nM.
Regarding `COc1ccc(CCNC(=O)[C@@H]2C[C@H](NCc3ccc(OC)cc3)CN2Cc2ccccc2Cl)cc1` [Compound 26, (2S,4S)-1-[(2-Chlorophenyl)methyl]-N-[2-(4-methoxyphenyl)ethyl]-4-{[(4-methoxyphenyl)methyl]amino}pyrrolidine-2-carboxamide], the Kb in series [4] (Table 1, footnote c: pre-incubation of antagonist and test compound 45 min or 1 hr, read-out: NPFF2 Ke) amounted to 1750 nM; in series [6], 2560 nM; in series [7] (footnote c: pre-incubation of antagonist and receptor 1 hour) it was 570 ± 150 nM; in [8] (setting [12]), 670 ± 60 nM; in series [8] (calcium mobilization assay), 670 nM. Besides, the Ki in series [5] (setting [11]) worked out at 1460 nM; in series [10] (setting [11]) it was 920 ± 30 nM.
For `COc1ccc(CN[C@H]2C[C@@H](C(=O)NCCc3ccc(F)c(F)c3)N(Cc3ccccc3Cl)C2)cc1` [Compound 34, (2S,4S)-1-[(2-Chlorophenyl)methyl]-N-[2-(3,4-difluorophenyl)ethyl]-4-{[(4-methoxyphenyl)methyl]amino}pyrrolidine-2-carboxamide], the values for the Ki in series [5] (setting [11]) and in series [10] (setting [11]) were 1490 nM and 560 ± 40 nM, respectively. Also, the Kb in series [6] came out at 2160 nM; in series [7] it was 570 ± 170 nM; in series [8] (setting [12]), 610 ± 130 nM; in series [8] (calcium mobilization assay), 610 nM.
`COc1ccc(CN[C@H]2C[C@@H](C(=O)NCCc3ccccc3)N(Cc3ccccc3Cl)C2)cc1` [Compound 24, (2S,4S)-1-[(2-Chlorophenyl)methyl]-4-{[(4-methoxyphenyl)methyl]amino}-N-(2-phenylethyl)pyrrolidine-2-carboxamide]: the Kb was greater than 10000 nM in series [4] (read-out: Calcium mobilization assay Ke NPFF2); > 10000 nM and 9390 nM in series [4] (read-out: NPFF2 Ke); 3790 nM in series [6]; 770 ± 120 nM in series [7]; 850 ± 140 nM in [8] (setting [12]); 850 nM in series [8] (calcium mobilization assay). Besides, the results for the Ki in series [5] (setting [11]) and in series [10] (setting [11]) were 1230 nM and 710 ± 20 nM, respectively. In addition, the “NPFF1 Ke” value in series [8] (Table 4, mean ± SEM) worked out at 850 ± 140 nM. In addition, in series [8] (Table 5), the “Calcium mobilization assay Ke NPFF1” value was 850 ± 140 nM.
As to `CCCCCNC(=O)[C@@H]1C[C@H](NCc2ccc(OC)cc2)CN1Cc1ccccc1Cl` [Compound 16, (2S,4S)-1-[(2-Chlorophenyl)methyl]-4-{[(4-methoxyphenyl)methyl]amino}-N-pentylpyrrolidine-2-carboxamide], in series [2], the “BBB permeability” value is “moderate”, the “rate B to A” value worked out at 6.7e-06 cm/s, the “rate apical (A) to basolateral (B)” value turned out to be 7.6e-06 cm/s and the “Pgp substrate” value was “not Pgp substrates”. Also, in [2] (setting [13]), the “Papp A-to-B” value is on record as 7.6 10^−6 cm/sec and the “Papp B-to-A” value was 6.7 10^−6 cm/sec. Also, in series [2] (Table 6, PB→A/PA→B), the Efflux ratio is given as 0.9. Moreover, the “solubility” value in series [3] was “good and moderate”. The same compound had a kinetic solubility in series [3] (Mean±% CV, free base) of 146.8 ± 6.9 µM (≈ 65.2 µg/mL). In addition, in [3] (Table 6, kinetic solubility in PBS, free base, Mean ± % CV), the solubility turned out to be 146.8 ± 6.9 µM (≈ 65.2 µg/mL). Moreover, the “Hill slope of NPFF + compound curve, calcium mobilization, NPFF2 cells” value in [4] was found to be 1.1. Further, in series [4] (Table 1, mean ± SEM, apparent dissociation constant vs NPFF, read-out: NPFF2 Ke), the Kb is 3090 nM. In series [4] (calcium mobilization assay), the “NPFF2 Ke” value is recorded as 3,090 nM. This compound also displayed a Ki in series [5] (setting [11]) of 1440 nM. Also, in series [6], the “Hill slope of NPFF + compound curve, cAMP assay, NPFF2 cells” value amounted to 1.3 and the Kb was found to be 2150 nM. In addition, in series [7], the “Hill slope of NPFF + compound curve, cAMP assay, NPFF1 cells” value is reported as 1.3 and the Kb worked out at 340 ± 80 nM. Moreover, in series [8], the “Hill slope of NPFF + compound curve, calcium mobilization, NPFF1 cells” value was 1.7 and the “preference / selectivity for NPFF1 over NPFF2” value was greater than 4 fold. In addition, in [8] (setting [12]), the Kb is 720 ± 10 nM. In addition, in [8] (calcium mobilization assay), the Kb came out at 720 nM. In series [9], the “effect on PWT” value is “dose-dependently increased PWT”. Further, in series [10] (setting [11]), the affinity corresponds to a Ki of 890 ± 50 nM.
